Experimental data: US20230365673A1, “MEANS FOR REDUCING RADIO- AND CHEMOTHERAPY RESISTANCE AND ADVERSE EFFECTS” (JOHANN WOLFGANG GOETHE-UNIVERSITÄT FRANKFURT AM MAIN, priority 2020, published 2023)

Assays:
APTKA orthotopic tumours = assay: Orthotopic APTKA organoid model with 5-FU chemotherapy, with or without radiotherapy; assay type: in vivo, C57BL/6 mice; details: 21 days
Description: (§1) FIG. 7: (A) APTKA organoids orthotopic transplantation into C57BL/6 mice followed by 5-fluorouracil (5-FU) chemotherapy (20 mg/Kg/day every 4 days for 21 days—experiment end point). Tumour area (mm3), % invasive area and liver metastasis frequency in untreated and 5-FU treated APTKA tumours (n=2 mice per group). Significant p-value<0.05 by t-test. (B and C) p21, pH2Ax IF and SA-ß gal staining quantifications and representative SA-ß gal staining images among untreated and 5-FU treated IL-1α (1 μg/mL) stimulated human fibroblasts and APTKA conditioned medium treated mouse fibroblasts. Significant p-value<0.05. Results representative of 4 independent experiments. Scale bars=100 μm.
The inventors further investigated, whether therapy resistance of tumours during treatment with cytotoxic chemotherapy is also connected to the senescence behavior of CAFs. For this, the orthotopic APTKA organoid C57BL/6 mice of the inventors' murine model were divided in three groups and subjected to different treatments. The groups consisted of a control group of untreated mice, a second group that was administered 20 mg/kg/day of the cytotoxic chemotherapeutic agent […] (5-FU) every 4 days and a third group that was treated with a therapy based on a concomitant administration of 5-FU and radiation therapy based on a fractionated irradiation schedule (5×2 Gy). After 21 days of treatment, parameters of tumour progression were determined. […] Overall, in vivo administration of the chemotherapy aggravated invasive growth and stimulated formation of liver metastases similarly to irradiation.

[1] = tested on: IL-1α stimulated human fibroblasts; assay: p21, pH2AX and SA-βgal staining of IL-1α stimulated fibroblasts; assay type: cell-based; details: IL-1α 1 μg/mL stimulated, 5-FU treated vs untreated
Description: as §1
Moreover, the inventors investigated the influence of chemotherapy on the IL-1α mediated changes to the tumour microenvironment in human cancer patients. Using staining experiments, the upregulation of pH2AX, p21, and SA-βgal in untreated and 5-FU treated IL-1α (1 μg/mL) stimulated human fibroblasts was quantified. […] Thus, targeting IL-1 in combination with chemotherapy may provide a substantial benefit particularly in tumours that are known to contain inflammatory cancer-associated fibroblasts such as pancreatic cancer, breast cancer or head and neck cancers.

[2] = tested on: APTKA medium conditioned mouse fibroblasts; assay: p21, pH2AX and SA-βgal staining of APTKA medium conditioned fibroblasts; assay type: cell-based; details: 5-FU treated vs non-treated
Description: as §1
In staining experiments, the inventors quantified the presence of nuclear p21, nuclear phosphorylated H2AX (pH2AX) and SA-βgal in APTKA medium conditioned mouse fibroblasts that were either left untreated or treated with 5-FU. […] (FIG. 7B). Overall, these experiments confirmed a chemotherapy induced senescence of the fibroblasts, when exposed to 5-FU.

[3] = tested on: primary mouse colon fibroblasts; assay: Inflammatory gene expression (RT-qPCR/RNAseq) in fibroblasts treated with APTKA conditioned medium; assay type: cell-based; details: APTKA conditioned medium, 24 h, RT-qPCR
Description: (A) Schematic illustration of APTKA or APTK organoids supernatant collection and treatment of primary mouse colon fibroblasts of unchallenged wildtype C57BL/6 mice. […] (F) Relative expression analysis by RT-qPCR of inflammatory genes in untreated wildtype and APTKA conditioned medium treated fibroblasts in the presence of IKKß inhibitor ML120B (30 μM) and p38 MAPK inhibitor SB203580 (10 μM) for 24 h (n=4 independent wells per group). Data are mean±SD. p<0.05 by one-way ANOVA followed by Tukey's multiple comparisons test. Representative results from one experiment which has been independently repeated 3 times. (G and H) RNA sequencing analysis of APTKA (n=3) and APTK (n=3) organoids: (G) heat map analysis; (H) differentially expressed cytokines in APTKA (Log 2 fold change≤−1) compared to APTK organoids (log 2 fold Change≥1). p-value<0.05. (I) RT-qPCR analysis of inflammatory genes in APTKA conditioned fibroblasts treated with control IgG, α-IL-1α, α-IL-33, α-TNF-α, α-BAFF or α-CXCL16 neutralizing antibodies (2 μg/mL each) for 24 h (n=4 independent wells per group). Data are mean±SD. **** p<0.0001 by one-way ANOVA followed by Tukey's multiple comparisons test. Experiment performed twice. (J) RNA expression profiles of inflammatory genes in APTKA conditioned fibroblasts stimulated for 24 h then subjected to anakinra (10 μg/mL), APTKA fresh or regular medium treatments for another 24 h (n=4 independent wells per condition). Data are mean±SD; p<0.05 by one-way ANOVA followed by Tukey's multiple comparisons test. Representative results from one experiment which has been independently repeated 2 times.
To examine whether APTK and APTKA tumour organoids differentially affect surrounding fibroblasts in tumours directly in a paracrine manner, supernatants were collected from both tumour organoid lines and treated primary intestinal fibroblasts of unchallenged wildtype mice for 24 hours with the two different tumour-conditioned media ex vivo (FIG. 3A). RNAseq analysis confirmed distinct gene expression patterns in fibroblasts exposed to the two organoid supernatants (FIG. 3B).
The inventors then aimed to identify the upstream factors secreted by APTKA organoids that were responsible for activating NF-κB and p38 in fibroblasts. To this end RNAseq analysis of APTK and APTKA tumour organoids were performed and identified several differentially expressed genes encoding cytokines (FIG. 3G, H). Using neutralizing antibodies, NF-κB and p38 inducing cytokines TNFα, IL-1α, IL-33, BAFF or CXCL16 were blocked in APTKA supernatants and expression of Cxcl1, Cxcl2, Cxcl5 and Ilia as inflammatory marker genes in fibroblasts was examined.
To do so, fibroblasts were stimulated for 24 hours with APTKA conditioned medium before adding anakinra, adding fresh APTKA medium or changing medium to regular medium.

colon fibroblasts [4] = assay: Oxidative DNA damage by 8-OHdG immunofluorescence in fibroblasts; assay type: cell-based, mouse; details: APTKA-conditioned medium plus W1400 1 mM, 72 h
Description: (§2) (A) Schematic illustration of APTKA organoids supernatant collection and treatment of colon fibroblasts from unchallenged wildtype C57BL/6 mice for 12 h followed by 3×2 Gy irradiation. Microscopic, proteomic & transcriptomic analysis were performed 72 h post first irradiation. (B) Microscopic captures of non-irradiated wildtype (WT) and APTKA conditioned fibroblasts. Remaining captures belong to irradiated fibroblasts: WT, IL-1α (1 μg/mL) stimulated WT, and APTKA conditioned media minus or plus anakinra (20 μg/mL) treated fibroblasts. Scale bars=200 μm. (C) Mass spectrometric analysis of matrisome profiles of 3×2 Gy irradiated (n=8) and non-irradiated (n=8) APTKA conditioned fibroblasts. […] (G) Immunoblot analysis of untreated and irradiated APTKA conditioned fibroblasts. Representative results from one experiment which has been independently repeated 2 times. (H) SA-ß gal staining of untreated and irradiated APTKA fibroblasts. Scale bars=100 μm. (I and J) p21 and pH2AX immunofluorescent staining of untreated and irradiated APTKA fibroblasts. Scale bars=[…]. Data are mean±SD. ** […] and *** p<0.001 by t-test. (K) Nitrite concentration determined by Griess assay in conditioned media from WT, APTK media, APTKA media, IL-1α (1 μg/mL) stimulated and APTKA plus anakinra (20 μg/mL) treated fibroblasts for 72 h (n=10 independent wells per group). […]

[5] = tested on: APTKA conditioned fibroblasts; assay: Senescence induction in fibroblasts treated with APTKA-conditioned medium; assay type: cell-based, mouse; details: APTKA-conditioned medium plus W1400
Description: as §2

colon fibroblasts [6] = assay: Nitrite concentration by Griess assay in fibroblast supernatants; assay type: cell-based, mouse; details: APTKA-conditioned medium plus W1400 1 mM
Description: as §2

[7] = 5-FU only, 20 mg/kg/day every 4 days, vs untreated control
[8] = concomitant 5-FU and radiotherapy (5×2 Gy), vs untreated control

With `O=c1[nH]cc(F)c(=O)[nH]1` [5-FU, 5-fluorouracil] the liver metastases (APTKA orthotopic tumours; [7]) was “have developed liver metastases”, the tumour area (APTKA orthotopic tumours; [7]) was “significant increase in tumour area” and the “tumour invasiveness (% invasive area)” value (APTKA orthotopic tumours; [7]) was “significant increase in tumour area and tumour invasiveness”. For the same compound, the liver metastases (APTKA orthotopic tumours; concomitant 5-FU and radiotherapy (5×2 Gy)) was “every mouse of this group suffered from liver metastases”, the invasive area (APTKA orthotopic tumours; [8]) was “significant increase in tumour area and invasive area” and the tumour area (APTKA orthotopic tumours; [8]) was “significant increase in tumour area”. For the same compound, the SA-βgal [1] was “significant increase of all three biomarkers”, the p21 [1] was “significant increase of all three biomarkers” and the pH2AX [1] was “significant increase of all three biomarkers”. For the same compound, the SA-βgal staining [2] was “significant upregulation of SA-βgal”, the “nuclear p21” value [2] was “significant upregulation of SA-βgal and nuclear p21” and the “nuclear phosphorylated H2AX (pH2AX)” value [2] was “significant increase of pH2AX”.

For `COc1c(Cl)cc2c([nH]c3cnccc32)c1NC(=O)c1cccnc1C` [ML120B], the “induction of pro-inflammatory genes (Cxcl1, Cxcl2, Cxcl5, Mmp9, Mmp13, Il1a, 116, Tnfa, Nos2)” value ([3]; ML120B 30 μM) was “significantly inhibited the induction of pro-inflammatory genes”.

`C[S+]([O-])c1ccc(-c2nc(-c3ccncc3)c(-c3ccc(F)cc3)[nH]2)cc1` (centres unmarked) [SB203580] was tested, and the “induction of pro-inflammatory genes (Cxcl1, Cxcl2, Cxcl5, Mmp9, Mmp13, Il1a, 116, Tnfa, Nos2)” value ([3]; SB203580 10 μM) was “significantly inhibited the induction of pro-inflammatory genes”.

For `CC(=N)NCc1cccc(CN)c1` [W1400], the “oxidative DNA damage (8-OHdG immunofluorescence)” value (colon fibroblasts [4]) was “prevented oxidative DNA damage”, the senescence induction [5] was “prevented oxidative DNA damage as well as senescence induction” and the nitrite production (colon fibroblasts [6]) was “blocked nitrite production”.
